Columns and labels:
[1] = Dissolution of L-DOPA/carbidopa/ascorbic acid mixture in 0.2 N HCl; type: physicochemical; conditions: 200 mg L-DOPA, 50 mg carbidopa, 2.5 mg ascorbic acid in 3.5 ml of 0.2 N HCl, vortexed and sonicated
Description: 3.5 ml of 0.2 N HCl were added to 200 mg of L- DOPA, 50 mg of carbidopa and 2.5 mg of ascorbic acid and the mixture was vortexed and then sonicated. […] Then 1N HCl was added dropwise till all L-DOPA was dissolved.

[2] = Solubility of levodopa esters and carbidopa propyl ester in water acidified with acetic acid; type: physicochemical
Description: Without limitation, in one example, substance 14 may include several levodopa esters, including the ethyl ester, propyl ester, isopropyl ester and butyl ester. In experiments, these esters were successfully dissolved in water to which was added acetic acid until attaining pH 5 (in some cases pH 4.5). […] The propyl ester of carbidopa was solubilized under the same conditions and a clear solution of 100 mg/ml of the carbidopa propyl ester was obtained. A mixture of each of the above levodopa esters with carbidopa propyl ester was prepared at a ratio of 4:1 (levodopa ester/carbidopa ester) and a clear solution was obtained. The solution of the mixture was stable for at least two weeks based on chromatographic determination of levodopa esters and carbidopa ester. The formulations of the levodopa esters together with carbidopa ester were prepared in diluted acetic acid and ascorbic acid at a pH 5. Each one of the above mentioned esters have good stability.

SMILES: N[C@@H](Cc1ccc(O)c(O)c1)C(=O)O [L- DOPA, L-3,4-dihydroxyphenylalanine]
- dissolution of L-DOPA (in words) [1]: did not fully dissolve

SMILES: CCCOC(=O)C(C)(Cc1ccc(O)c(O)c1)NN (centres unmarked) [carbidopa propyl ester]
- soluble at a concentration of / clear solution obtained ([2]; water with acetic acid added until pH 5 (in some cases pH 4.5)): ≥ 100 mg/mL

SMILES: CCOC(=O)[C@@H](N)Cc1ccc(O)c(O)c1 [ethyl ester]
- relative solubility among the levodopa esters (in words) [2]: highest solubility

SMILES: CC(C)OC(=O)[C@@H](N)Cc1ccc(O)c(O)c1 [isopropyl ester]
- solubility ([2]; pH 5, aqueous buffer, thermodynamic from solid): ≥ 400 mg/mL

SMILES: CCCOC(=O)[C@@H](N)Cc1ccc(O)c(O)c1 [propyl ester]
- soluble at a concentration of / clear solution obtained ([2]; pH 5): ≥ 400 mg/mL

From patent US20230338647A1, “SUBCUTANEOUSLY IMPLANTED DEVICE FOR GASTROINTESTINAL ADMINISTRATION OF SUBSTANCES” (Endopump Ltd., priority 2018, published 2023)
